As a reminder, the EC50 is the concentration needed to bring the measured effect to its halfway point. Read a high EC50 as lower potency in that assay.

Data on 11 compounds can be found in patent US20140221499A1, “NOVEL RODENT CONTROL AGENTS AND USES THEREOF” (priority 2011, published 2014).

Assay [1] concerns corticosterone levels in rat plasma. Put plainly: Plasma corticosterone assay after odor exposure. It counts as in vivo. To be noted: 30 min exposure, 10% amine or 2% TMT, 1 ml, ±SEM. How it is done: Avoidance to 2-phenylethylamine in rats was associated with acute changes in circulating levels of the stress hormone corticosterone.
Plasma corticosterone assay. […] Corticosterone levels were measured in duplicate using a competitive radioactive binding assay as described previously (Pryce C R, Bettschen D, Bahr N I, & Feldon J (2001) Comparison of the effects of infant handling, isolation, and nonhandling on acoustic startle, prepulse inhibition, locomotion, and HPA activity in the adult rat. Behav Neurosci 115(1):71-83).

The subject of assay [2] is olfactory TAARs. Put plainly: TAAR reporter gene assay, panel of mouse and rat TAARs in HEK293 cells. It is filed as cell-based. The conditions noted are these: mouse and rat TAARs. From the text: Here, we set out to identify agonists for additional mouse and rat TAARs. We examined odor response profiles using a previously established reporter gene assay based on cAMP-dependent odor transduction in olfactory sensory neurons (40, 42). Briefly, TAAR plasmids were transfected into HEK293 cells along with a cAMP-dependent reporter gene encoding secreted alkaline phosphatase (CRE-SEAP). TAARs were expressed both in unmodified form and as fusion proteins with an N-terminal sequence of bovine rhodopsin (‘Rho tag’) that promotes cell surface expression of some chemosensory receptors (35). Transfected cells were incubated with test chemicals, and phosphatase activity was quantified with a fluorescent substrate as a reporter for TAAR activation. In initial experiments, we tested 38 different odorant mixtures containing 244 structurally diverse test chemicals (2-5 μM) for the ability to activate each mTAAR. Subsequently, we tested 73 amines that included known mTAAR agonists and related chemicals for the ability to activate each rTAAR.
TAAR functional assays. Full Taar coding regions were cloned into pcDNA3.1-(Invitrogen) with or without a 5′ DNA extension of 69 bp encoding the first 20 amino acids of bovine rhodopsin followed by a cloning linker ([…]). Point mutations were introduced in mTAAR7e and mTAAR7f by overlap extension PCR. Functional assays were performed as described (40, 42). Fluorescence was measured on an EnVision plate reader (Perkin Elmer) and SEAP activity graphed as relative fluorescence of a phosphatase substrate.
A general note: In a reporter assay the amount or activity of a reporter protein is the signal.

Assay [3] deals with T1, mouse TAAR4 (Mus musculus, UniProt Q5QD15).
T1 construct: Full Taar coding regions were cloned into pcDNA3.1-(Invitrogen); expressed in transfected cells; host or cells: HEK293
T1 sequence (Q5QD15 1-347): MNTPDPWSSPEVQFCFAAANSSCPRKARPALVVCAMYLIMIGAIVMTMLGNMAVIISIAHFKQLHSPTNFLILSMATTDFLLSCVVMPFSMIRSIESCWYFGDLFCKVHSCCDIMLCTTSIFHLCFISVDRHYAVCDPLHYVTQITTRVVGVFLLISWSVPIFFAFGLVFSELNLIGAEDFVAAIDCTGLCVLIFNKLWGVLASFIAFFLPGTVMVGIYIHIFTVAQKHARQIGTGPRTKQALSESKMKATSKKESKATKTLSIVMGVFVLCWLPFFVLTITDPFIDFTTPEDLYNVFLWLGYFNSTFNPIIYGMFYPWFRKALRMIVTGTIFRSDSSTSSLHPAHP
The assay can be described thus: TAAR4 CRE-SEAP reporter gene assay in transfected HEK293 cells. It is filed as cell-based. To be noted: concentration series of pure chemicals.
Procedure: HEK293 cells were co-transfected with TAAR expression plasmids and a cAMPdependent reporter gene encoding secreted alkaline phosphatase (CRE-SEAP). Transfected cells were incubated with urine extracts from different mammalian species, and phosphatase activity was quantified with a fluorescent substrate as a reporter for TAAR activation.
Test urines were diluted in serum-free media containing penicillin G (100 Units/ml, Invitrogen) and streptomycin sulfate (100 mg/ml, Invitrogen). SEAP activity is measured as fluorescence resulting from dephosphorylation of a substrate, 4-methylumbelliferyl phosphate. Fluorescence values were obtained using an EnVision plate reader (Perkin Elmer) and are reported directly without normalization.

Assay [4] relates to mouse olfactory sensory neurons. Put plainly: Confocal calcium imaging of olfactory sensory neurons in tissue slices. It counts as cell-based. To be noted: dorsal olfactory epithelium. How it is done: The mammalian olfactory system encodes odor identity using combinations of olfactory receptors (11). […] Here, we used a confocal imaging strategy to record cytosolic calcium transients of single sensory neurons in real time. Viability of analyzed neurons was determined after odor exposures by KCl-induced depolarization.
Confocal calcium imaging of olfactory sensory neurons in tissue slices. Recordings were performed as described (Spehr M, et al. (2006) Essential role of the main olfactory system in social recognition of major histocompatibility complex peptide ligands. J Neurosci 26(7):1961-1970) with the following modifications. For calcium sensitive dye loading, slices of olfactory epithelium were incubated (30 min, 4° C.) in HEPES solution (in mM: 145 NaCl, 5 KCl, 1 CaCl2, 1 MgCl2, 10 HEPES; pH=7.3) containing Fluo-4/AM (2 μM; Molecular Probes). Slices were transferred to a recording chamber (Slice Mini Chamber, Luigs & Neumann, Ratingen, Germany) and visualized using a Leica DM6000CFS confocal fixed stage upright microscope (Leica Microsystems, Mannheim, Germany) equipped with an apochromatic water immersion objective (HC X APO L20x/1.0 W) and infrared-optimized differential interference contrast (DIC) optics. Slices were anchored via stainless steel wires with 0.1 mm lycra threads and continuously superfused with HEPES-buffered solution. Changes in cytosolic calcium were monitored over time at 1.0 Hz frame rate. Stimulus application as well as solution exchange during inter-stimulus intervals was achieved by a custom-made, pressure-driven focal application device consisting of a software-controlled valve bank connected to a 7-in-1 ‘perfusion pencil’. Rhodamine application controlled for uniform flow and even stimulus application throughout the epithelial sensory surface. Offline analysis of time-lapse experiments was performed using LAS-AF software (Leica). All cells in a given field of view were marked as individual regions of interest (ROIs), and the relative fluorescence intensity for each ROI was calculated and processed as a function of time.

The target in assay [5] is T2, mouse TAAR3 (Mus musculus, UniProt Q5QD16).
T2 construct: Full Taar coding regions were cloned into pcDNA3.1-(Invitrogen); expressed in transfected cells; host or cells: HEK293
T2 sequence (Q5QD16 1-343): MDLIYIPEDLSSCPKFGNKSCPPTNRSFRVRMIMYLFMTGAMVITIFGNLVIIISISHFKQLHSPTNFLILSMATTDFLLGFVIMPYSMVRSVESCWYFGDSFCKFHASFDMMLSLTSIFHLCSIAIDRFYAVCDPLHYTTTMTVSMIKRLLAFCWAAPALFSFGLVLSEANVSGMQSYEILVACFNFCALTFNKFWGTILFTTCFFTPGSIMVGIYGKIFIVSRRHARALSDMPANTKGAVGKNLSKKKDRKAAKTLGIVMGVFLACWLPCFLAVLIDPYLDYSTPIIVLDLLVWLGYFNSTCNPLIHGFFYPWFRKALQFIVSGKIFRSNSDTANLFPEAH
Put plainly: TAAR3 CRE-SEAP reporter gene assay in transfected HEK293 cells. It is filed as cell-based. How it is done: Reporter gene assays were performed on HEK293 cells transfected with mouse TAAR3 and CRE-SEAP.
TAAR functional assays. Reporter gene assays were performed as described (Liberles S D & Buck LB (2006) A second class of chemosensory receptors in the olfactory epithelium. Nature 442(7103):645-650) with the following minor modifications. Test urines were diluted in serum-free media containing penicillin G (100 Units/ml, Invitrogen) and streptomycin sulfate ([…], Invitrogen). SEAP activity is measured as fluorescence resulting from dephosphorylation of a substrate, 4-methylumbelliferyl phosphate. Fluorescence values were obtained using an EnVision plate reader (Perkin Elmer) and are reported directly without normalization. All TAARs, except mouse TAAR3, were expressed as fusion proteins with an N-terminal sequence of bovine rhodopsin (Krautwurst D, Yau K W, & Reed R R (1998) Identification of ligands for olfactory receptors by functional expression of a receptor library. Cell 95(7):917-926).

The subject of assay [6] is Sprague-Dawley rats. Put plainly: Open field odor avoidance. It counts as in vivo, rat. To be noted: ten minute exposure, 12 animals ±SEM; 1 ml urine or 5 μl amine. How it is done:
We next examined behavioral responses of rodents to 2-phenylethylamine. […] Behaviors of rats in a square-shaped arena were recorded and analyzed following placement of test stimuli in a pseudorandom corner (FIG. 5A). […] Thus, 2-phenylethylamine, in the absence of other predator odor cues, was sufficient to evoke rat avoidance behavior.
Open field behavioral analysis. Rat behavioral responses to odors in the open field were measured as described previously (Fendt M (2006) Exposure to urine of canids and felids, but not of herbivores, induces defensive behavior in laboratory rats. Journal of chemical ecology 32(12):2617-2627) with the following modifications. Adult Sprague-Dawley rats (240-340 g; Janvier, Le Genest St. Isle, France) were placed in the center of a 45 cm×45 cm Plexiglass arena (TSE Systems, Bad Homburg, Germany) equipped with infrared sensors (distance 14 mm, illumination 80-120 lux). The arena contained glass dishes (36 mm) in each corner, with one dish containing test stimuli. Prior to testing, animals were habituated to the arena by introducing them for three consecutive days. […] Location of the rats was automatically recorded using the infrared detectors and analyzed (TSE Systems software). Statistical significance was measured using Wilcoxon Signed Test (**p<0.01; comparison with chance level (25%)). […]

As to `CC1=NC(C)SC1C` (stereo not shown) [TMT, 2,5-dihydro-2,4,5-trimethylthiazole], in assay [1], the “plasma levels of corticosterone” value turned out to be 238 ± 21 ng/mL.

On to `COc1ccc2[nH]cc(CCN(C)C)c2c1` [ligand 7, 5-methoxy-N,N-dimethyltryptamine], for which, in assay [2], the TAAR activation entry was “activated different TAAR7 paralogs”.

On to `OCCc1ccccc1` [2-phenylethanol], for which the TAAR4 activation entry in assay [3] is “did not activate TAAR4 at any concentration tested”.

For `NC1CCCCC1` [cyclohexylamine], in assay [2], the TAAR activation result was “activated TAARs”.

In the case of `CCCCNC` [methylbutylamine], in assay [2], the TAAR activation result is “activated TAARs”.

Consider `CCCCN(C)C` [N,N-dimethylbutylamine], for which the TAAR activation entry in assay [2] is reported as “activated TAARs”.

Regarding `CCCCCCCCN(C)C` [N,N-dimethyloctylamine], the TAAR activation result in assay [2] is given as “activated TAARs”.

For the compound `NCc1ccccc1` [benzylamine, reference compound], the TAAR4 activation result in assay [3] is “did not similarly activate TAAR4”. For the same compound, the “carnivore odor-selective neurons activated by 2-phenylethylamine that also responded to benzylamine” value in assay [4] is listed as 0/1268. The compound further gave an EC50 in assay [5] of roughly 200 µM. Besides, the “plasma levels of corticosterone” value in assay [1] was found to be 130 ± 32 ng/mL. In addition, in assay [6], the “percentage of time rats are located in the odor quadrant” value came to 29±7.2%.

As to `CC(C)CCN` [isoamylamine], the TAAR3 detection entry in assay [5] is recorded as “preferred ligand”. For the same compound, the TAAR activation entry in assay [2] was “activated TAARs”.

Turning to `CN1CCCCC1` [1-methylpiperidine, N-methylpiperidine], the TAAR activation result in assay [2] is “activated TAARs”.

As for `NCCCc1ccccc1` [3-phenylpropylamine], in assay [3], the TAAR4 activation result is reported as “activates TAAR4 at high concentrations”.
